Patent US20210113522A1, “COUMARIN DERIVATIVE AS ANTI-ASTHMATIC AGENT, PHARMACEUTICAL COMPOSITION THEREOF, ITS PREPARATION AND USE” (I-NOVA MEDICINSKA ISTRAZIVANJA D.O.O., priority 2017, published 2021)

Assays:
CCL11 (eotaxin) = experiment: OVA model: CCL11 (eotaxin) immunohistochemistry of lung sections; format: in vivo, Balb/c mice; conditions: OVA-challenged mice; 1 2 mg/kg, beclomethasone 1 mg/kg
Procedure: (§1) • (1) Wash Buffer: T-PBS (0.1M, pH 7.4, 0.05% Tween 20); • (2) Blocking/Incubation Buffer: 1% bovine serum albumin, 0.1% Cold Fish Skin Gelatin, 0.5% Triton® X-100, 0.1 M PBS (pH 7.4); • (3) Peroxidase Blocking Solution (3% H2O2 in water); • (4) EDTA Antigen Retrieval Buffer (1 mM EDTA, 0.05% Tween 20, pH 8.0); • (5) Primary antibodies: • Rabbit anti-mouse IL-5 (Cat. #ABIN446956; Antibodies-Online GmbH, Schloss-Rahe-Str. 1552072 Aachen, Germany); • Rat anti-mouse CCL11 (Cat. #MAB420; R&D Systems, Inc., 614 McKinley Place Nebr., Minneapolis, Minn. 55413); • (6) Secondary antibodies: • Goat anti-rabbit IgG (H+L)-HRP (cat. #31466; Thermo Fisher Scientific, 168 Third Avenue Waltham, Mass. USA 02451); • Goat anti-rat IgG (H+L)—HRP (cat. #62-9520; Thermo Fisher Scientific, 168 Third Avenue Waltham, Mass. USA 02451); • (7) Pierce DAB Substrate Kit (DAB (10×), 25 mL; Stable Peroxide Buffer, 250 mL) (Catalog #34002; Thermo Fisher Scientific, 168 Third Avenue Waltham, Mass. USA 02451); • (8) Hematoxylin Counterstain (Cat #GHS216; Sigma-Aldrich Chemie GmbH, Eschenstrasse 5, 82024 Taufkirchen, Germany); • (9) Vitro-Clud 500 Mounting Medium (Catalog #A20500; Deltalab; Plz. Verneda 1, Pol Ind La Llana 08191 Rubí Barcelona Spain). […]

IL-5 = experiment: OVA model: IL-5 immunohistochemistry of lung sections; format: in vivo, Balb/c mice; conditions: OVA-sensitised mice; both compound 1 groups 2 mg/kg, beclomethasone 1 mg/kg
Procedure: To investigate the treatment effect of compound 1, immunohistology from serial lung sections was performed 2 days after i.n. challenge in experimental mice that were treated with the compound 1 or beclomethasone as standard antiinflammatory and anti-asthmatic API.
as §1, with “Mass.” for “Mass. USA 02451); • (8) Hematoxylin Counterstain (Cat #GHS216; Sigma-Aldrich Chemie GmbH, Eschenstrasse 5, 82024 Taufkirchen, Germany); • (9) Vitro-Clud 500 Mounting Medium (Catalog #A20500; Deltalab; Plz. Verneda 1, Pol Ind La Llana 08191 Rubí Barcelona Spain).”

SMILES	CCL11 (eotaxin) levels in lung sections (CCL11 (eotaxin))	IL-5 expression in lung sections (IL-5)
O=c1oc2cc(O)cc(O)c2c(O)c1-c1coc2c1c(=O)oc1cc(O)cc(O)c12 [Compound 1, 7,9-dihydroxy-3-(4,5,7-trihydroxy-2-oxo-2H-chromene-3-yl)-4H-furo[3,2-c]chromen-4-one]	reduced to background	no IL-5 expression
C[C@H]1C[C@H]2[C@@H]3CCC4=CC(=O)C=C[C@]4(C)[C@@]3(Cl)[C@@H](O)C[C@]2(C)[C@@]1(O)C(=O)CO [beclomethasone, reference compound]	reduced to background	moderate result
